# pIC50: −log10 of the molar value.
# How the values were obtained:
# UO-31 = experiment: Antiproliferative activity against human UO31 cells assessed as growth inhibition after 48 hrs by sulforhodamine B assay; format: functional; settings: UO-31, 48 h
# TK-10 = experiment: Antiproliferative activity against human TK10 cells assessed as growth inhibition after 48 hrs by sulforhodamine B assay; format: functional; settings: TK-10, 48 h
# [1] = system: Panel NCI-60 (60 carcinoma cell lines); experiment: Antiproliferative activity against human NCI60 cells assessed as growth inhibition after 48 hrs by sulforhodamine B assay; format: functional
# [2] = Selectivity index, ratio of IC50 for human WI38 cells to GI50 for human NCI60 cells
# PC-3 = experiment: Antiproliferative activity against human PC3 cells assessed as growth inhibition after 48 hrs by sulforhodamine B assay; format: functional; settings: PC-3, 48 h
# ACHN = experiment: Antiproliferative activity against human ACHN cells assessed as growth inhibition after 48 hrs by sulforhodamine B assay; format: functional
# A498 = experiment: Antiproliferative activity against human A498 cells assessed as growth inhibition after 48 hrs by sulforhodamine B assay; format: functional; settings: A498, 48 h
# 786-0 = experiment: Antiproliferative activity against human 786-0 cells assessed as growth inhibition after 48 hrs by sulforhodamine B assay; format: functional; settings: 786-0, 48 h
# NCI/ADR-RES = experiment: Antiproliferative activity against human NCI-ADR-RES cells assessed as growth inhibition after 48 hrs by sulforhodamine B assay; format: functional
# OVCAR-8 = experiment: Antiproliferative activity against human OVCAR8 cells assessed as growth inhibition after 48 hrs by sulforhodamine B assay; format: functional; settings: OVCAR-8, 48 h
# OVCAR-4 = experiment: Antiproliferative activity against human OVCAR4 cells assessed as growth inhibition after 48 hrs by sulforhodamine B assay; format: functional; settings: OVCAR-4, 48 h
# IGROV-1 = experiment: Antiproliferative activity against human IGROV1 cells assessed as growth inhibition after 48 hrs by sulforhodamine B assay; format: functional; settings: IGROV-1, 48 h
# SK-MEL-5 = experiment: Antiproliferative activity against human SK-MEL-5 cells assessed as growth inhibition after 48 hrs by sulforhodamine B assay; format: functional; settings: SK-MEL-5, 48 h
# SK-MEL-28 = experiment: Antiproliferative activity against human SK-MEL-28 cells assessed as growth inhibition after 48 hrs by sulforhodamine B assay; format: functional; settings: SK-MEL-28, 48 h
# MDA-MB-435 = experiment: Antiproliferative activity against human MDA-MB-435 cells assessed as growth inhibition after 48 hrs by sulforhodamine B assay; format: functional; settings: MDA-MB-435, 48 h
# U-251 = experiment: Antiproliferative activity against human U251 cells assessed as growth inhibition after 48 hrs by sulforhodamine B assay; format: functional; settings: U-251, 48 h
# SF-295 = experiment: Antiproliferative activity against human SF295 cells assessed as growth inhibition after 48 hrs by sulforhodamine B assay; format: functional; settings: SF-295, 48 h
# SW-620 = experiment: Antiproliferative activity against human SW620 cells assessed as growth inhibition after 48 hrs by sulforhodamine B assay; format: functional; settings: SW-620, 48 h
# KM12 = experiment: Antiproliferative activity against human KM12 cells assessed as growth inhibition after 48 hrs by sulforhodamine B assay; format: functional; settings: KM12, 48 h
# HT-29 = experiment: Antiproliferative activity against human HT-29 cells assessed as growth inhibition after 48 hrs by sulforhodamine B assay; format: functional; settings: HT-29, 48 h
# HCT-15 = experiment: Antiproliferative activity against human HCT15 cells assessed as growth inhibition after 48 hrs by sulforhodamine B assay; format: functional; settings: HCT-15, 48 h
# HCT-116 [3] = experiment: Antiproliferative activity against human HCT116 cells assessed as growth inhibition after 48 hrs by sulforhodamine B assay; format: functional; settings: HCT-116, 48 h
# HCC 2998 = experiment: Antiproliferative activity against human HCC2998 cells assessed as growth inhibition after 48 hrs by sulforhodamine B assay; format: functional; settings: HCC 2998, 48 h
# COLO 205 = experiment: Antiproliferative activity against human COLO205 cells assessed as growth inhibition after 48 hrs by sulforhodamine B assay; format: functional; settings: COLO 205, 48 h
# NCI-H522 = experiment: Antiproliferative activity against human NCI-H522 cells assessed as growth inhibition after 48 hrs by sulforhodamine B assay; format: functional; settings: NCI-H522, 48 h
# NCI-H322M = experiment: Antiproliferative activity against human NCI-H322M cells assessed as growth inhibition after 48 hrs by sulforhodamine B assay; format: functional
# NCI-H226 = experiment: Antiproliferative activity against human NCI-H226 cells assessed as growth inhibition after 48 hrs by sulforhodamine B assay; format: functional; settings: NCI-H226, 48 h
# EKVX = experiment: Antiproliferative activity against human EKVX cells assessed as growth inhibition after 48 hrs by sulforhodamine B assay; format: functional
# A549 = experiment: Antiproliferative activity against human A549/ATCC cells assessed as growth inhibition after 48 hrs by sulforhodamine B assay; format: functional; settings: A549, 48 h
# MOLT-4 = experiment: Antiproliferative activity against human MOLT4 cells assessed as growth inhibition after 48 hrs by sulforhodamine B assay; format: functional; settings: MOLT-4, 48 h
# K562 = experiment: Antiproliferative activity against human K562 cells assessed as growth inhibition after 48 hrs by sulforhodamine B assay; format: functional, cell-based; settings: K562, 48 h; for pIC50: read-out: IC50
# HL-60(TB) = experiment: Antiproliferative activity against human HL-60(TB) cells assessed as growth inhibition after 48 hrs by sulforhodamine B assay; format: functional; settings: HL-60, 48 h
# BT-549 = experiment: Antiproliferative activity against human BT549 cells assessed as growth inhibition after 48 hrs by sulforhodamine B assay; format: functional; settings: BT-549, 48 h
# MDA-MB-468 = experiment: Antiproliferative activity against human MDA-MB-468 cells assessed as growth inhibition after 48 hrs by sulforhodamine B assay; format: functional; settings: MDA-MB-468, 48 h
# [4] = Haemolytic activity in human erythrocytes assessed as induction of hemolysis at 5 mM after 30 mins relative to H202; format: cell-based, Erythrocyte; settings: read-out: Activity
# Erythrocyte = experiment: Haemolytic activity in human erythrocytes assessed as induction of hemolysis at 0.625 mM after 30 mins relative to H202; format: cell-based; settings: erythrocyte, 0.5 h, 625 µM
# [5] = Antioxidant activity assessed as DPPH radical scavenging activity incubated in dark for 30 mins by spectrophotometric method relative to control; format: functional; set-up: concentration or dose not given beside the values
# [6] = Antioxidant activity assessed as DPPH radical scavenging activity incubated in dark for 30 mins by spectrophotometric method relative to ascorbic acid; format: functional
# [7] = Antioxidant activity assessed as ABTS radical scavenging activity by spectrophotometric analysis relative to control; format: functional; set-up: concentration or dose not given beside the values; settings: dose or concentration not given here
# [8] = Antioxidant activity assessed as ABTS radical scavenging activity by spectrophotometric method relative to ascorbic acid; format: functional
# HCT-116 [9] = experiment: Induction of apoptosis in human HCT116 cells assessed as increase in caspase 9 mRNA expression at 100 nM after 6 hrs hrs by SYBR green dye-based qRT-PCR analysis relative to control; format: functional
# HCT-116 [10] = experiment: […] in CDK1 mRNA expression in human HCT116 cells at 100 nM after 6 hrs hrs by SYBR green dye-based qRT-PCR analysis relative to control; format: functional
smiles,measurement,setting,value
N=C(N)c1ccc(-c2ccc(-c3cncc4ccccc34)s2)s1,GI50,UO-31,1390 nM
same,GI50,TK-10,1.84 µM
same,GI50,[1],1340 nM
same,LC50,[1],77.6 µM
same,TGI,[1],3.23 µM
same,Selectivity Index,[2],>74.6
same,GI50,PC-3,1560 nM
same,GI50,ACHN,1480 nM
same,GI50,A498,1690 nM
same,GI50,786-0,1590 nM
same,GI50,NCI/ADR-RES,1680 nM
same,GI50,OVCAR-8,1830 nM
same,GI50,OVCAR-4,300 nM
same,GI50,IGROV-1,1910 nM
same,GI50,SK-MEL-5,1740 nM
same,GI50,SK-MEL-28,1640 nM
same,GI50,MDA-MB-435,2030 nM
same,GI50,U-251,1720 nM
same,GI50,SF-295,1800 nM
same,GI50,SW-620,1080 nM
same,GI50,KM12,1510 nM
same,GI50,HT-29,560 nM
same,GI50,HCT-15,980 nM
same,GI50,HCT-116 [3],1610 nM
same,GI50,HCC 2998,1530 nM
same,GI50,COLO 205,750 nM
same,GI50,NCI-H522,1650 nM
same,GI50,NCI-H322M,1660 nM
same,GI50,NCI-H226,1.91 µM
same,GI50,EKVX,1330 nM
same,GI50,A549,1620 nM
same,GI50,MOLT-4,1170 nM
same,pIC50,K562,6.62
same,IC50,K562; read-out: pIC50 (converted),38000 µM
same,GI50,HL-60(TB),1920 nM
same,GI50,BT-549,1.51 µM
same,GI50,MDA-MB-468,1270 nM
same,"hemolysis at 0.5 h, 5000 µM",[4],4%
same,Activity,Erythrocyte,Non-Toxic
same,inhibition,[5],52.5%
same,fold change (FC),[6],0.6
same,inhibition,[7],69.9%
same,fold change (FC),[8],0.8
same,fold change (FC),HCT-116 [9],1.27
same,fold change (FC),HCT-116 [10],0.16
COc1ccc(-c2ccc(-c3ccc(C(=N)N)o3)o2)cc1,GI50,UO-31,1720 nM
same,GI50,TK-10,7.97 µM
same,GI50,[1],1740 nM
same,LC50,[1],20.4 µM
same,TGI,[1],5.89 µM
same,Selectivity Index,[2],41.8
same,GI50,PC-3,1880 nM
same,GI50,ACHN,1800 nM
same,GI50,A498,1760 nM
same,GI50,786-0,2220 nM
same,GI50,NCI/ADR-RES,1880 nM
same,GI50,OVCAR-8,3190 nM
same,GI50,OVCAR-4,2220 nM
same,GI50,IGROV-1,1730 nM
same,GI50,SK-MEL-5,2800 nM
same,GI50,SK-MEL-28,1670 nM
same,GI50,MDA-MB-435,290 nM
same,GI50,U-251,1740 nM
same,GI50,SF-295,1680 nM
same,GI50,SW-620,530 nM
same,GI50,KM12,590 nM
same,GI50,HT-29,480 nM
same,GI50,HCT-15,670 nM
same,GI50,HCT-116 [3],1070 nM
same,GI50,HCC 2998,1580 nM
same,GI50,COLO 205,1250 nM
same,GI50,NCI-H522,1090 nM
same,GI50,NCI-H322M,2260 nM
same,GI50,NCI-H226,22 µM
same,GI50,EKVX,2790 nM
same,GI50,A549,1490 nM
same,GI50,MOLT-4,1200 nM
same,pIC50,K562,6.31
same,GI50,HL-60(TB),1230 nM
same,GI50,BT-549,4.55 µM
same,GI50,MDA-MB-468,860 nM
same,"hemolysis at 0.5 h, 5000 µM",[4],36.3%
same,Activity,Erythrocyte,Non-Toxic
same,inhibition,[5],61.7%
same,fold change (FC),[6],0.7
same,inhibition,[7],69.2%
same,fold change (FC),[8],0.7
same,fold change (FC),HCT-116 [9],2.31
same,fold change (FC),HCT-116 [10],1.02
COc1ccc2cc(-c3ccc(-c4ccc(C(=N)N)s4)s3)ccc2c1,GI50,UO-31,2880 nM
same,GI50,TK-10,14.2 µM
same,GI50,[1],3090 nM
same,LC50,[1],38 µM
same,TGI,[1],7.94 µM
same,Selectivity Index,[2],26
same,GI50,PC-3,2130 nM
same,GI50,ACHN,3060 nM
same,GI50,A498,14300 nM
same,GI50,786-0,2040 nM
same,GI50,NCI/ADR-RES,2290 nM
same,GI50,OVCAR-8,2340 nM
same,GI50,OVCAR-4,1820 nM
same,GI50,IGROV-1,2270 nM
same,GI50,SK-MEL-5,16100 nM
same,GI50,SK-MEL-28,2500 nM
same,GI50,MDA-MB-435,2010 nM
same,GI50,U-251,1830 nM
same,GI50,SF-295,5070 nM
same,GI50,SW-620,1910 nM
same,GI50,KM12,2060 nM
same,GI50,HT-29,1720 nM
same,GI50,HCT-15,1890 nM
same,GI50,HCT-116 [3],2080 nM
same,GI50,HCC 2998,3350 nM
same,GI50,COLO 205,2040 nM
same,GI50,NCI-H522,1920 nM
same,GI50,NCI-H322M,2020 nM
same,GI50,NCI-H226,23.6 µM
same,GI50,EKVX,2140 nM
same,GI50,A549,2220 nM
same,GI50,MOLT-4,2170 nM
same,pIC50,K562,5.93
same,GI50,HL-60(TB),1840 nM
same,GI50,BT-549,17.6 µM
same,GI50,MDA-MB-468,2340 nM
same,"hemolysis at 0.5 h, 5000 µM",[4],11.3%
same,Activity,Erythrocyte,Non-Toxic
same,inhibition,[5],43%
same,fold change (FC),[6],0.5
same,inhibition,[7],57.4%
same,fold change (FC),[8],0.6
same,fold change (FC),HCT-116 [9],2.51
same,fold change (FC),HCT-116 [10],0.93
